The nature of data set [1]: Rat pharmacokinetic (PK) test (plasma concentration after oral administration). As to conditions: male, SD.
Method: Each test compound was suspended in a 0.5 W/V % methylcellulose 400 solution to prepare a suspension, and the resulting suspension was orally administered to a male SD rat of 7 to 8-week old (weight: 180 to 250 g). After 0.25, 0.5, 1, 2, 4, 8, and 24 hour(s) of the administration of each test compound, blood (EDTA-added blood) was collected from jugular vein under isoflurane inhalation anesthesia. […] To the resulting blood plasma was added acetonitrile, a mixed solvent of acetonitrile and water (1:1 (V/V)), or a mixed solvent of acetonitrile and 0.1 M hydrochloric acid (1:1 (V/V)), then the resulting mixture was mixed at 750 rpm for 3 minutes in a shaker, and subjected to centrifugal separation at 3700 rpm for 2 minutes in a centrifuge to remove proteins. The resulting sample was subjected to LC (liquid chromatography)/MS (mass spectrometry) measurement under the following measurement conditions.
Each compound concentration in blood plasma at each time of blood collection was calculated according to the internal standard method, and, area under the plasma concentration vs. time curve (AUCall (Area Under Curve)) was calculated according to the trapezoidal method.
The LC and MS systems used in the present test are as follows.
LC: LC20 or LC30 HPLC system manufactured by Shimadzu Corporation
Column: Phenomenex Kinetex C18 (50×2.1 mm, 2.6 μm)
Column temperature: 40° C.
Mobile phase A: aqueous solution with 0.1% formic acid, Mobile phase B: 50% acetonitrile/methanol solution with 0.1% formic acid
Data set [2] deals with T1, Human recombinant trypsin (Homo sapiens, UniProt P07477).
T1 construct: purchased Wako Pure Chemical Industries, Ltd. 206-17171
Put plainly: Human trypsin inhibition test. Type of data set: biochemical. The following applies: 20 minutes after reaction start, read-out: Inhibition rate (trypsin); for inhibition at 0.01 µM: compound concentration 10 nM; for inhibition at 0.1 µM: compound concentration 100 nM; for inhibition at 0.001 µM: compound concentration 1 nM. The method, then:
(Test Example 2): Human Trypsin Inhibition Test
Human recombinant trypsin (manufactured by Wako Pure Chemical Industries, Ltd., code no.: 206-17171) was diluted with an assay buffer (0.1 M Tris-HCl (pH8.0), 0.15 M NaCl, 10 mM CaCl2, 0.05% Brij35) to prepare a 10 ng/mL enzyme solution. Then, Boc-Phe-Ser-Arg-MCA (manufactured by PEPTIDE INSTITUTE, INC., code no.: 3107-v) was diluted with the assay buffer to prepare a 40 μM substrate solution. Each test compound was dissolved into DMSO, then diluted with the assay buffer 100 times, and further appropriately diluted with an assay buffer comprising 1% DMSO to prepare each compound solution. 10 μL of the compound solution, 15 μL of the assay buffer, and 50 μL of the substrate solution were added to a 96 well black plate (manufactured by Thermo Fisher Scientific Inc., code no.: 9502867), mixed, and then 25 μL of the enzyme solution was added thereto, and mixed to start the reaction. Fluorescence intensities at excitation wavelength 355 nm and fluorescence wavelength of 460 nm were measured by using a fluorescence plate reader (Flex station 3) (Test compound addition group). Also, the same reaction as described above except for not adding each test compound was carried out (Test compound non-addition group). Additionally, the same reaction as described above except for not adding each test compound and the enzyme was carried out (Control group). Inhibition rate was calculated by the following equation using fluorescence intensity after 20 minutes of reaction start. Inhibition rate (%)=(1−(fluorescence intensity of Test compound addition group−fluorescence intensity of Control group)[…](fluorescence intensity of Test compound non-addition group−fluorescence intensity of Control group))×100

Data set [3] addresses T2, Human recombinant enteropeptidase (Homo sapiens, UniProt P98073).
T2 construct: purchased BIO Vision Inc. 7529-50
Kind of data set: Human enteropeptidase inhibition test. It counts as biochemical. As to conditions: read-out: Inhibition rate (enteropeptidase); for inhibition at 0.001 µM: compound concentration 1 nM. The method, then:
(Test Example 1): Human Enteropeptidase Inhibition Test
Human recombinant enteropeptidase (manufactured by BIO Vision Inc., catalog no.: 7529-50) was diluted with an assay buffer (50 mM tricine (pH8.0), 0.01 W/V % Tween 20, 10 mM CaCl2) to prepare an […] enzyme solution. Then, 5FAM-Abu-Gly-Asp-Asp-Lys-Ile-Val-Gly-Gly-Lys (CPQ2)-Lys-Lys-NH2 (manufactured by CHINESE PEPTIDE COMPANY, purity: 94.5) was diluted with the assay buffer to prepare a 1.5 μM substrate solution. Each test compound was dissolved into DMSO, then diluted with the assay buffer 100 times, and further appropriately diluted with an assay buffer comprising 1% DMSO to prepare each compound solution. 10 μL of the compound solution, 15 μL of the assay buffer, and 50 μL of the substrate solution were added to a 96 well black plate (manufactured by Thermo Fisher Scientific Inc., code no.: 9502867), mixed, then 25 μL of the enzyme solution was added thereto, and mixed to start the reaction. Fluorescence intensities at excitation wavelength 485 nm and fluorescence wavelength 535 nm were measured by using a fluorescence plate reader (Flex station 3) (Test compound addition group). Also, the same reaction as described above except for not adding each test compound was carried out (Test compound non-addition group). Additionally, the same reaction as described above except for not adding each test compound and the enzyme was carried out (Control group). Inhibition rate was calculated by the following equation using fluorescence intensity after 20 minutes of reaction start. Inhibition rate (%)=(1−(fluorescence intensity of Test compound addition group−fluorescence intensity of Control group)÷(fluorescence intensity of Test compound non-addition group−fluorescence intensity of Control group))×100

In another data set the test system is DIO mouse. Kind of data set: Anti-obesity effect test using DIO mouse. It counts as in vivo. The following applies: 336 h, DIO mice, vs vehicle group, read-out: Weight loss rate; for inhibition in vivo at 50 mg/kg: oral 50 mg/kg once daily for 2 weeks; for inhibition in vivo at 100 mg/kg: oral 100 mg/kg once daily for 2 weeks. The procedure:
(Test Example 4): Anti-Obesity Effect Test Using DIO Mouse
Diet-induced obesity (DIO) mice (D-12492 diet, male, C57BL-DIO, 26 to 28-week old) were orally administered with a 0.5 W/V % methylcellulose suspension comprising each test compound (Compound administration group, 5 or 6 mice/group) or a 0.5 W/V % methylcellulose suspension (Compound non-administration group (Vehicle group), 6 mice/group) once daily for 2 weeks. Weight loss rate was calculated by the following equation. Weight loss rate (%) of each Compound administration group−(1−average weight at the last day of the test of each Compound administration group/average weight at the last day of the test of Vehicle group)×100

The mark [4] stands for this setting: compound concentration 10 nM, 20 minutes after reaction start.
Setting [5] is: compound concentration 100 nM, 20 minutes after reaction start.
The mark [6] stands for this setting: 20 minutes after reaction start.

What is called AUC is the area under the concentration-time curve, a measure of exposure. High values mean more exposure, low ones less exposure. The term inhibition denotes the relative decrease from the control value, in per cent.

Counter-ions that a name gives are not always drawn. Like-named read-outs stand apart in the source and are kept apart here. Some results are limits rather than exact numbers.

T2 sequence (P98073 whole entry): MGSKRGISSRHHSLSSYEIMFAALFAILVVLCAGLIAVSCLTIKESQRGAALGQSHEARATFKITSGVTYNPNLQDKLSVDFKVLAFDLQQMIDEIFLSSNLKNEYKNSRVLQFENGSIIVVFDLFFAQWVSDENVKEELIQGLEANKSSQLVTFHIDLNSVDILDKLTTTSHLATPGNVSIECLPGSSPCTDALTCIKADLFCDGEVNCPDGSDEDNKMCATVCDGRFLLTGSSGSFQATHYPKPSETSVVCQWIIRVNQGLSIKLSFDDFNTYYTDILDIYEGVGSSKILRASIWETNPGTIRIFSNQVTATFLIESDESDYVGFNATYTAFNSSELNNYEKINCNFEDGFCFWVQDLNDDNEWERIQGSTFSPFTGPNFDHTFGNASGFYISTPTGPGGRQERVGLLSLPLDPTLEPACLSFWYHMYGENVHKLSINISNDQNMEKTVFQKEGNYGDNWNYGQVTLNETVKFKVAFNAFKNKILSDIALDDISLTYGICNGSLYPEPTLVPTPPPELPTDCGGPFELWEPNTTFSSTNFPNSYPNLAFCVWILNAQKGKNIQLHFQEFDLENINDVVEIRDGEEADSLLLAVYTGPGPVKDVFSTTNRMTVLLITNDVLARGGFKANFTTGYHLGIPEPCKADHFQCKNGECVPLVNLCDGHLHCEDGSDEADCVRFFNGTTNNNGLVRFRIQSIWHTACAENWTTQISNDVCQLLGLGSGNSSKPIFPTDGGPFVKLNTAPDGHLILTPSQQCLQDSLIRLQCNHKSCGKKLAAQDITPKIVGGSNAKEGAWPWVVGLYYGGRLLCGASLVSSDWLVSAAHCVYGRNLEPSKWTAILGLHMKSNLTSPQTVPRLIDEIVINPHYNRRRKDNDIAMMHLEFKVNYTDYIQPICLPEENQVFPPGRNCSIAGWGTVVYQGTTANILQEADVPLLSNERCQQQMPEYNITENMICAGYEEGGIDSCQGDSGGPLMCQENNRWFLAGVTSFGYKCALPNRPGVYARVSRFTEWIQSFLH

The compound `Cl.N=C(N)Nc1ccc(C(=O)Oc2ccc(CNS(=O)(=O)N(CCOCCOCCOCCN([C@@H](CC(=O)O)C(=O)O)S(=O)(=O)NCc3ccc(OC(=O)c4ccc(NC(=N)N)cc4)cc3)[C@@H](CC(=O)O)C(=O)O)cc2)cc1` [3-(c)] displayed an AUC in data set [1] (10 mg/kg) of no more than 100 ng·h/mL.
In turn, `N=C(N)Nc1ccc(C(=O)Oc2ccc(COC(=O)N(CCCCCCCCCCCCN(C(=O)OCc3ccc(OC(=O)c4ccc(NC(=N)N)cc4)cc3)C(CC(=O)O)C(=O)O)C(CC(=O)O)C(=O)O)cc2)cc1` (stereo not drawn) [11-(b), 2,2′-(1,20-bis(4-((4-guanidinobenzoyl)oxy)phenyl 3,18-dioxo-2,19-dioxa-4,17-diazaicosane-4,17-diyl)disuccinic acid trifluoroacetate] yielded an AUC in data set [1] (9 mg/kg) of no more than 100 ng·h/mL. The inhibition at 0.01 µM in data set [2] and in data set [3] (setting [4]) was no less than 50% in each case. Moreover, the inhibition at 0.1 µM in data set [2] and in data set [3] (setting [5]) was no less than 50% each time.
As for `N=C(N)Nc1ccc(C(=O)Oc2ccc(CN(CCOCCOCCN(Cc3ccc(OC(=O)c4ccc(NC(=N)N)cc4)cc3)S(=O)(=O)N[C@@H](CC(=O)O)C(=O)O)S(=O)(=O)N[C@@H](CC(=O)O)C(=O)O)cc2)cc1` [24-(a)], the inhibition in vivo at 50 mg/kg in the data set with DIO mouse was no less than 4%. In data set [2], the inhibition at 0.001 µM was no less than 50%. Further, the inhibition at 0.01 µM in data set [2] and in data set [3] (setting [4]) was no less than 50% throughout. Besides, the inhibition at 0.1 µM in data set [2] and in data set [3] (setting [5]) was no less than 50% each time.
`N=C(N)Nc1ccc(C(=O)Oc2cccc(C(=O)N(CCOCCN(C(=O)c3cccc(OC(=O)c4ccc(NC(=N)N)cc4)c3)[C@@H](CC(=O)O)C(=O)O)[C@@H](CC(=O)O)C(=O)O)c2)cc1` [30-(a)] registered an AUC in data set [1] (10 mg/kg) of no more than 100 ng·h/mL. The inhibition at 0.001 µM in data set [2] and in data set [3] (setting [6]) was no less than 50% each time. In addition, the inhibition at 0.01 µM in data set [2] and in data set [3] (setting [4]) was no less than 50% each time. Moreover, the inhibition at 0.1 µM in data set [2] and in data set [3] (setting [5]) was no less than 50% throughout.
With `Cl.N=C(N)Nc1ccc(C(=O)Oc2ccc(CNS(=O)(=O)N(CCOCCOCCOCCOCCOCCOCCN([C@@H](CC(=O)O)C(=O)O)S(=O)(=O)NCc3ccc(OC(=O)c4ccc(NC(=N)N)cc4)cc3)[C@@H](CC(=O)O)C(=O)O)cc2)cc1` [6-(c), (2S,25S)-3,24-bis(N-(4-((4-guanidinobenzoyl)oxy)benzyl)sulfamoyl)-6,9,12,15,18,21-hexaoxa-3,24-diazahexacosane-1,2,25,26-tetracarboxylic acid hydrochloride], in the data set with DIO mouse, the inhibition in vivo at 100 mg/kg was no less than 4%. Moreover, the AUC in data set [1] (10 mg/kg) is no more than 100 ng·h/mL.
As for `N=C(N)Nc1ccc(C(=O)Oc2cccc(CNS(=O)(=O)N(CCOCCOCCN([C@@H](CC(=O)O)C(=O)O)S(=O)(=O)NCc3cccc(OC(=O)c4ccc(NC(=N)N)cc4)c3)[C@@H](CC(=O)O)C(=O)O)c2)cc1` [25-(b), (2S,13S)-3,12-bis(N-(3-((4-guanidinobenzoyl)oxy)benzyl)sulfamoyl)-6,9-dioxa-3,12-diazatetradecane-1,2,13,14-tetracarboxylic acid], in the data set with DIO mouse, the inhibition in vivo at 50 mg/kg is no less than 4%. In addition, the inhibition at 0.01 µM in data set [2] and in data set [3] (setting [4]) was no less than 50% each time. Also, the inhibition at 0.1 µM in data set [2] and in data set [3] (setting [5]) was no less than 50% in each case. The inhibition at 0.001 µM in data set [3] (setting [6]) is no less than 50%.
As to `N=C(N)Nc1ccc(C(=O)Oc2ccc(COC(=O)N(Cc3cccc(C(=O)O)c3)[C@@H](CC(=O)O)C(=O)NCCOCCOCCOCCOCCNC(=O)[C@H](CC(=O)O)N(Cc3cccc(C(=O)O)c3)C(=O)OCc3ccc(OC(=O)c4ccc(NC(=N)N)cc4)cc3)cc2)cc1` [16-(b), (3S,22S)-3,22-bis((3-carboxybenzyl) (((4-(14-guanidinobenzoyl)oxy)benzyl)oxy)carbonyl)amino)-4,21-dioxo-8,11,14,17-tetraoxa-5,20-diazatetracosane-1,24-dioic acid trifluoroacetate], the AUC in data set [1] (9 mg/kg) is no more than 100 ng·h/mL. In data set [2], the inhibition at 0.01 µM is no less than 50% and the inhibition at 0.1 µM is no less than 50%. In data set [3], the inhibition at 0.01 µM is no less than 50% and the inhibition at 0.1 µM was no less than 50%.
Consider `N=C(N)Nc1ccc(C(=O)Oc2ccc(CNS(=O)(=O)N(CCOCCOCCN([C@@H](CC(=O)O)C(=O)O)S(=O)(=O)NCc3ccc(OC(=O)c4ccc(NC(=N)N)cc4)cc3)[C@@H](CC(=O)O)C(=O)O)cc2)cc1` [2-(c)], for which the inhibition in vivo at 30 mg/kg in the data set with DIO mouse (oral 30 mg/kg once daily for 2 weeks) is no less than 4%. In data set [1] (10 mg/kg), this compound gave an AUC of no more than 100 ng·h/mL.
In the case of `N=C(N)Nc1ccc(C(=O)Oc2ccc(COC(=O)N(CC(=O)O)[C@@H](CC(=O)O)C(=O)N[C@@H](CC(=O)O)C(=O)NCCOCCOCCOCCOCCNC(=O)[C@H](CC(=O)O)NC(=O)[C@H](CC(=O)O)N(CC(=O)O)C(=O)OCc3ccc(OC(=O)c4ccc(NC(=N)N)cc4)cc3)cc2)cc1` [15-(b), (4S,7S,26S,29)-4,7,26,29-tetrakis(carboxymethyl)-3,30-bis((4-((4-guanidinobenzoyl)oxy)benzyl)oxy)carbonyl)-5,8,25,28-tetraoxo-12,15,18,21-tetraoxa-3,6,9,24,27,30-hexaazadotriacontane-1,32-dioic acid trifluoroacetate], the AUC in data set [1] (9 mg/kg) was no more than 100 ng·h/mL. In addition, the inhibition at 0.01 µM in data set [2] and in data set [3] (setting [4]) was no less than 50% in each case. The inhibition at 0.1 µM in data set [2] and in data set [3] (setting [5]) was no less than 50% throughout. In addition, the inhibition at 0.001 µM in data set [3] (setting [6]) is no less than 50%.
With `Cl.N=C(N)Nc1ccc(C(=O)Oc2ccc(CNS(=O)(=O)N(CCOCCOCCOCCN([C@@H](CC(=O)O)C(=O)O)S(=O)(=O)NCc3ccc(OC(=O)c4ccc(NC(=N)N)cc4)cc3)[C@@H](CC(=O)O)C(=O)O)cc2)cc1` [3-(c), 2S,16S)-3,15-bis(N-(4-(4-guanidinobenzoyl)oxy)benzyl)sulfamoyl)-6,9,12-trioxa-3,15-diazaheptadecane-1,2,16,17-tetracarboxylic acid hydrochloride], the inhibition in vivo at 100 mg/kg in the data set on DIO mouse was no less than 4%.
For the compound `N=C(N)Nc1ccc2c(c1)CCCOc1c(cccc1C(=O)N(CCOCCOCCN(C(=O)c1cccc3c1OCCCc1cc(NC(=N)N)ccc1C(=O)O3)[C@@H](CC(=O)O)C(=O)O)[C@@H](CC(=O)O)C(=O)O)OC2=O` [20-(d), (2S,13S)-3,12-bis(10-guanidino-13-oxo-6,7,8,13-tetrahydrodibenzo[b,f][1,4]dioxecin-4-carbonyl)-6,9-dioxa-3,12-diazatetradecane-1,2,13,14-tetracarboxylic acid], the inhibition in vivo at 50 mg/kg in the data set on DIO mouse is no less than 4%.

These data come from US11465965B2, “Double-headed protease inhibitor” (UBE INDUSTRIES, LTD., priority 2017, dated 2022).
